Data as given in patent US20230002346A1, “NEW COMPOUNDS AND METHODS” (BenevolentAl Bio Limited, priority 2019, published 2023).
Values after ≈ are worked out from the molar mass of the structure shown.

How the values were obtained:
[1] = Brain to plasma (B:P) ratio in rat; assay type: in vivo, Sprague Dawley Rats; details: male, Sprague Dawley, iv, i.v. 0.5 mg/kg, 5% NMP in 30% HPBC in water, timepoints averaged 0.17-1 h
[2] = Kinetic aqueous solubility assay; assay type: physicochemical; details: aqueous buffer, kinetic from dmso stock, 0.05M potassium phosphate buffer pH 7.4, 250 μM spike, RT
Method in brief: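 Compound added from DMSO stock into 0.05M potassium phosphate buffer pH 7.4 at 250 μM final, shaken 30 min at RT to induce precipitation (n=2). Appearance noted visually. Filtrate concentration determined by UV peak area against calibration standards.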

[3] = Rat PK profile (bioavailability, clearance, half-life); assay type: in vivo; details: male, Sprague Dawley, plasma, i.v. dose 0.5 mg/kg
Description: Male Sprague Dawley Rats 300-350 g (Charles River, UK) were group housed, n=3, under a 12 h light/dark cycle with food and water available ad libitum. At 17:00 on the day prior to dosing all food was removed. On the day of dosing animals were weighed, tail marked and dosed via oral gavage with compound at 3 mg/kg in a volume of 5 mL/kg. Animals were culled at 30 min, 1 h and 4 h post dose via intra-peritoneal administration of pentobarbital. Post mortem blood was withdrawn via cardiac puncture, and briefly stored in K2 EDTA blood tubes on ice before being spun at 14,000 g for 4 min at 4° C. Plasma was withdrawn into a 96 well plate, placed on dry ice and stored at −80° C. Brains were quickly dissected and placed on dry ice before storage at −80° C. Bioanalysis of plasma and brain samples is performed as detailed below. Methods were prepared with guidance from industry standard documents.^i,ii
A 10 mM DMSO stock is used to prepare spiking solutions of test compound in the range of 10-100,000 ng/mL in diluent (MeCN:water, 1;1). Calibration lines are prepared in control male Sprague-Dawley Rat plasma at known concentrations in the range of 1-10000 ng/mL by spiking 2.5 μL of calibration spiking solution into 25 μL control plasma. Experimental samples are thawed to RT and 25 μL aliquots are extracted alongside the calibration lines using protein precipitation (agitation for at least 5 min at RT with 400 μL of MeCN containing 25 ng/mL tolbutamide as an internal standard). Protein precipitates are separated from the extracted test compound by centrifugation at 4000 rpm for 5 min, 4° C. The resulting supernatants are diluted in a ratio of 1:2 with a relevant diluent (e.g. 0.1% formic acid in water or 1:1 MeOH:water). Samples are analysed by UPLC-MS/MS on either an API6500 QTrap or Waters 30 TQS mass spectrometer using previously optimised analytical MRM (multiple reaction monitoring) methods, specific to the test compound. The concentration of test compound in isolated samples is determined following analysis of the samples against the two replicates of the calibration line, injected before and after the sample set with an appropriate regression and weighting used. Only samples within 20% of the expected test concentration are included in the calibration line and any samples that fall outside of the limits of the calibration line will be deemed to be less than or above the limit of quantification (LLoQ/ALoQ).
Pharmacokinetic parameters such as bioavailability (% F), clearance (CL), half-life (T½) and volume of distribution are calculated by non-compartmental analysis using Phoenix Winnonlin 64 software (build 8.0). The bioavailability was calculated from p.o. dosed rats, whereas the clearance and half-life were calculated from i.v. dosed rats. Briefly, in vivo plasma concentrations, timepoints and dose values are imported into the software in a compatible format. Plasma concentration for each animal is plotted against time, and the elimination phase identified and selected. The area under the curve for each plot is calculated using a linear trapezoidal linear interpolation from which pharmacokinetic parameters can subsequently be determined. […] Compounds of the invention have much improved clearance (CL) and half-life (T½) compared to the reference examples.

[4] = tested on: Salmonella typhimurium, strains TA98 and TA100; assay: Ames assay (Bacterial Reverse Mutation Test); assay type: cell-based; details: TA98 and TA100, presence and absence of S-9 mix, up to 5000 μg/plate
Description: Examples 50, 52 and 54 were tested, in vitro, for their ability to induce mutations in 2 histidine dependent auxotrophic mutants of Salmonella typhimurium, strains TA98 and TA100. The mutation screen was conducted using the plate incorporation method and was performed in both the presence and absence of S-9 mix (a liver post-mitochondrial fraction derived from the livers of Aroclor 1254 treated rats). The bacteria were exposed to the test items dissolved in DMSO, which was also the negative Control. The test items were tested up to the regulatory maximum dose level. The dose levels used were 5, 15, 50, 150, 500, 1500 or 5000 μg/plate, unless the highest treatment level of the test items was limited by solubility, or toxicity against the background bacterial lawn. Dose levels were expressed in terms of the free base.
There were no increases of 2-fold or greater in revertant numbers compared with negative Control values in either strain at any dose level in the presence or absence of S-9 mix, so Examples 50, 52 and 54 were not mutagenic in the Bacterial Reverse Mutation (i.e. Ames) Test under the conditions of this screen.

In the case of `O=C(Nc1ccc(OC(F)(F)Cl)cc1)c1ccc(=O)n(-c2cncc(F)c2)c1` [Example 54, N-[4-[Chloro(difluoro)methoxy]phenyl]-1-(5-fluoro-3-pyridyl)-6-oxo-pyridine-3-carboxamide], the Kp [1] is reported as 0.53, the solubility at 30 min [2] is reported as 170 µM (≈ 69.7 µg/mL) and the clearance ([3]; iv) is reported as 4 mL/min/kg. The half-life ([3]; iv, read-out: T½ (converted)) was 7.6 h, the bioavailability ([3]; po, p.o. dose 3 mg/kg) was 97% and the “mutagenicity in the Bacterial Reverse Mutation (Ames) Test” value [4] was “not mutagenic”.
